Laboratory results reported in PubChem BioAssay AID2060616 (Molecular Pharmacology Branch, DTP, NCI, 2025).

System: 377384-186-R-J1-PDC complex spheroid viability
Test: Anticancer human tumor 377384-186-R-J1-PDC patient-derived pancreatic carcinoma cell line growth inhibition [CLK]
Details: for IC50: curve of first compound; for viability, T/C: stronger effect = lower value; active = viability on the fitted dose curve at most 10% of control; inactive = the rest
Outline: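 Patient-derived tumor cells grown as complex spheroids with HUVEC endothelial cells and mesenchymal stem cells, treated with drug combinations. Concentrations descend in half-log steps from near clinical Cmax, or from 10 microM if Cmax unknown.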

[1] = second compound 0.0316 µM, first compound 0.0316 µM
[2] = second compound 0.0316 µM, first compound 0.1 µM
[3] = second compound 0.0316 µM, first compound 0.316 µM
[4] = second compound 0.0316 µM, first compound 1 µM
[5] = second compound 0.0316 µM, first compound 3.16 µM
[6] = second compound 0.0316 µM, first compound 10 µM
[7] = second compound 0.1 µM, first compound 0.0316 µM
[8] = second compound 0.1 µM, first compound 0.1 µM
[9] = second compound 0.1 µM, first compound 0.316 µM
[10] = second compound 0.1 µM, first compound 1 µM
[11] = second compound 0.1 µM, first compound 3.16 µM
[12] = second compound 0.1 µM, first compound 10 µM
[13] = second compound 0.316 µM, first compound 0.0316 µM
[14] = second compound 0.316 µM, first compound 0.1 µM
[15] = second compound 0.316 µM, first compound 0.316 µM
[16] = second compound 0.316 µM, first compound 1 µM
[17] = second compound 0.316 µM, first compound 3.16 µM
[18] = second compound 0.316 µM, first compound 10 µM
[19] = second compound 1 µM, first compound 0.0316 µM
[20] = second compound 1 µM, first compound 0.1 µM
[21] = second compound 1 µM, first compound 0.316 µM
[22] = second compound 1 µM, first compound 1 µM
[23] = second compound 1 µM, first compound 3.16 µM
[24] = second compound 1 µM, first compound 10 µM
[25] = second compound 3.16 µM, first compound 0.0316 µM
[26] = second compound 3.16 µM, first compound 0.1 µM
[27] = second compound 3.16 µM, first compound 0.316 µM
[28] = second compound 3.16 µM, first compound 1 µM
[29] = second compound 3.16 µM, first compound 3.16 µM
[30] = second compound 3.16 µM, first compound 10 µM
[31] = second compound 10 µM, first compound 0.0316 µM
[32] = second compound 10 µM, first compound 0.1 µM
[33] = second compound 10 µM, first compound 0.316 µM
[34] = second compound 10 µM, first compound 1 µM
[35] = second compound 10 µM, first compound 3.16 µM
[36] = second compound 10 µM, first compound 10 µM
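Also: spheroids exposed to agents for 7 days before reading.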
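For viability, T/C in this document: luminescence signal used as a stand-in for viable cells.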

CC1(C)CCC(CN2CCN(c3ccc(C(=O)NS(=O)(=O)c4ccc(NCC5CCOCC5)c([N+](=O)[O-])c4)c(Oc4cnc5[nH]ccc5c4)c3)CC2)=C(c2ccc(Cl)cc2)C1 + CN1CCN(c2cc(C(=O)Nc3cc4cc(-c5cnn(C)c5)ccc4cn3)ccn2)CC1
5250 nM: IC50 (second compound 0.1 µM)
active: viability, T/C [6] 8.02% | viability, T/C [12] 7.17% | viability, T/C [19] 1.15% | viability, T/C [20] 1.09% | viability, T/C [21] 1.14% | viability, T/C [22] 1.04% | viability, T/C [23] 1.22% | viability, T/C [24] 1.79% | viability, T/C [25] 0.38% | viability, T/C [26] 0.8% | viability, T/C [27] 0.43% | viability, T/C [28] 0.54% | viability, T/C [29] 1.02% | viability, T/C [30] 1.42% | viability, T/C [31] 0.41% | viability, T/C [32] 0.46% | viability, T/C [33] 0.55% | viability, T/C [34] 0.59% | viability, T/C [35] 0.61% | viability, T/C [36] 0.95%
inactive: viability, T/C [1] 96% | viability, T/C [2] 97.6% | viability, T/C [3] 102% | viability, T/C [4] 115% | viability, T/C [5] 89.7% | viability, T/C [7] 95.7% | viability, T/C [8] 101% | viability, T/C [9] 89.8% | viability, T/C [10] 92.7% | viability, T/C [11] 83.8% | viability, T/C [13] 24.6% | viability, T/C [14] 27.9% | viability, T/C [15] 27.9% | viability, T/C [16] 21.6% | viability, T/C [17] 20.4% | viability, T/C [18] 3.98%
< 31.6 nM: IC50 (second compound 0.316 µM) | IC50 (second compound 1 µM) | IC50 (second compound 3.16 µM) | IC50 (second compound 10 µM)
5530 nM: IC50 (second compound 0.0316 µM)

CC(C)CC(NC(=O)C(Cc1ccccc1)NC(=O)c1cnccn1)B(O)O (stereo not drawn) + CNC(=O)c1ccc(Nc2nc(OC3CCCC3)c3c(-c4ccc5nc(C)oc5c4)c[nH]c3n2)c(OC)c1
active: viability, T/C (second compound 0.0316 µM, first compound 0.003 µM) 2.16% | viability, T/C (second compound 0.0316 µM, first compound 0.00949 µM) 0.37% | viability, T/C (second compound 0.0316 µM, first compound 0.03 µM) 0.17% | viability, T/C (second compound 0.0316 µM, first compound 0.0949 µM) 0.17% | viability, T/C (second compound 0.0316 µM, first compound 0.3 µM) 0.13% | viability, T/C (second compound 0.1 µM, first compound 0.003 µM) 1.4% | viability, T/C (second compound 0.1 µM, first compound 0.00949 µM) 0.25% | viability, T/C (second compound 0.1 µM, first compound 0.03 µM) 0.15% | viability, T/C (second compound 0.1 µM, first compound 0.0949 µM) 0.13% | viability, T/C (second compound 0.1 µM, first compound 0.3 µM) 0.15% | viability, T/C (second compound 0.316 µM, first compound 0.003 µM) 0.99% | viability, T/C (second compound 0.316 µM, first compound 0.00949 µM) 0.18% | viability, T/C (second compound 0.316 µM, first compound 0.03 µM) 0.14% | viability, T/C (second compound 0.316 µM, first compound 0.0949 µM) 0.15% | viability, T/C (second compound 0.316 µM, first compound 0.3 µM) 1.69% | viability, T/C (second compound 1 µM, first compound 0.003 µM) 0.98% | viability, T/C (second compound 1 µM, first compound 0.00949 µM) 0.28% | viability, T/C (second compound 1 µM, first compound 0.03 µM) 0.24% | viability, T/C (second compound 1 µM, first compound 0.0949 µM) 0.51% | viability, T/C (second compound 1 µM, first compound 0.3 µM) 0.35% | viability, T/C (second compound 3.16 µM, first compound 0.003 µM) 0.96% | viability, T/C (second compound 3.16 µM, first compound 0.00949 µM) 0.36% | viability, T/C (second compound 3.16 µM, first compound 0.03 µM) 0.23% | viability, T/C (second compound 3.16 µM, first compound 0.0949 µM) 0.31% | viability, T/C (second compound 3.16 µM, first compound 0.3 µM) 0.21% | viability, T/C (second compound 10 µM, first compound 0.003 µM) 0.81% | viability, T/C (second compound 10 µM, first compound 0.00949 µM) 0.71% | viability, T/C (second compound 10 µM, first compound 0.03 µM) 0.24% | viability, T/C (second compound 10 µM, first compound 0.0949 µM) 0.62% | viability, T/C (second compound 10 µM, first compound 0.3 µM) 0.3%
1.41 nM: IC50 (second compound 0.0316 µM)
inactive: viability, T/C (second compound 0.0316 µM, first compound 0.000949 µM) 75.2% | viability, T/C (second compound 0.1 µM, first compound 0.000949 µM) 44% | viability, T/C (second compound 0.316 µM, first compound 0.000949 µM) 21.4% | viability, T/C (second compound 1 µM, first compound 0.000949 µM) 17.2% | viability, T/C (second compound 3.16 µM, first compound 0.000949 µM) 14.8% | viability, T/C (second compound 10 µM, first compound 0.000949 µM) 14.3%
< 0.949 nM: IC50 (second compound 0.1 µM) | IC50 (second compound 0.316 µM) | IC50 (second compound 1 µM) | IC50 (second compound 3.16 µM) | IC50 (second compound 10 µM)

O=C(c1cc(Cc2n[nH]c(=O)c3ccccc23)ccc1F)N1CCN(C(=O)C2CC2)CC1 + CN1CCN(c2cc(C(=O)Nc3cc4cc(-c5cnn(C)c5)ccc4cn3)ccn2)CC1
< 31.6 nM: IC50 (second compound 0.316 µM) | IC50 (second compound 1 µM) | IC50 (second compound 3.16 µM) | IC50 (second compound 10 µM)
inactive: viability, T/C [1] 87.8% | viability, T/C [2] 85.3% | viability, T/C [3] 81% | viability, T/C [4] 77.7% | viability, T/C [5] 65.1% | viability, T/C [6] 52.7% | viability, T/C [7] 83.9% | viability, T/C [8] 89.8% | viability, T/C [9] 77% | viability, T/C [10] 78.5% | viability, T/C [11] 63.3% | viability, T/C [12] 42.6% | viability, T/C [13] 24% | viability, T/C [14] 32.5% | viability, T/C [15] 27.3% | viability, T/C [16] 27.1% | viability, T/C [17] 24.1% | viability, T/C [18] 22.7%
6680 nM: IC50 (second compound 0.1 µM)
active: viability, T/C [19] 1.23% | viability, T/C [20] 1.25% | viability, T/C [21] 1.1% | viability, T/C [22] 1.53% | viability, T/C [23] 1.47% | viability, T/C [24] 0.93% | viability, T/C [25] 0.4% | viability, T/C [26] 0.39% | viability, T/C [27] 0.42% | viability, T/C [28] 0.45% | viability, T/C [29] 0.37% | viability, T/C [30] 1.27% | viability, T/C [31] 0.42% | viability, T/C [32] 1.09% | viability, T/C [33] 1.28% | viability, T/C [34] 0.44% | viability, T/C [35] 0.49% | viability, T/C [36] 0.38%
> 10000 nM: IC50 (second compound 0.0316 µM)

C=C(F)C(=O)N1CCN(c2nc(OCC3CCCN3C)nc3c2CCN(c2cccc4cccc(Cl)c24)C3)CC1CC#N (stereo not drawn) + CNC(=O)c1ccc(Nc2nc(OC3CCCC3)c3c(-c4ccc5nc(C)oc5c4)c[nH]c3n2)c(OC)c1
active: viability, T/C [6] 0.88% | viability, T/C [12] 0.37% | viability, T/C [18] 0.26% | viability, T/C [23] 11.1% | viability, T/C [24] 0.2% | viability, T/C [29] 8.66% | viability, T/C [30] 0.22% | viability, T/C [35] 8.61% | viability, T/C [36] 0.3%
145 nM: IC50 (second compound 0.1 µM)
inactive: viability, T/C [1] 99.6% | viability, T/C [2] 93.8% | viability, T/C [3] 102% | viability, T/C [4] 96.6% | viability, T/C [5] 22.3% | viability, T/C [7] 54.3% | viability, T/C [8] 50.9% | viability, T/C [9] 45.7% | viability, T/C [10] 40.4% | viability, T/C [11] 23.1% | viability, T/C [13] 21.2% | viability, T/C [14] 22.8% | viability, T/C [15] 20.7% | viability, T/C [16] 22.1% | viability, T/C [17] 12% | viability, T/C [19] 19.5% | viability, T/C [20] 19.3% | viability, T/C [21] 19% | viability, T/C [22] 17.9% | viability, T/C [25] 20.5% | viability, T/C [26] 20.9% | viability, T/C [27] 18.3% | viability, T/C [28] 20.3% | viability, T/C [31] 20.6% | viability, T/C [32] 21.4% | viability, T/C [33] 21.9% | viability, T/C [34] 17.1%
2060 nM: IC50 (second compound 0.0316 µM)
< 31.6 nM: IC50 (second compound 0.316 µM) | IC50 (second compound 1 µM) | IC50 (second compound 3.16 µM) | IC50 (second compound 10 µM)
